Series [1] concerns the target T1, α-amylase (Sus scrofa, UniProt P00690).
T1 sequence (P00690 16-511): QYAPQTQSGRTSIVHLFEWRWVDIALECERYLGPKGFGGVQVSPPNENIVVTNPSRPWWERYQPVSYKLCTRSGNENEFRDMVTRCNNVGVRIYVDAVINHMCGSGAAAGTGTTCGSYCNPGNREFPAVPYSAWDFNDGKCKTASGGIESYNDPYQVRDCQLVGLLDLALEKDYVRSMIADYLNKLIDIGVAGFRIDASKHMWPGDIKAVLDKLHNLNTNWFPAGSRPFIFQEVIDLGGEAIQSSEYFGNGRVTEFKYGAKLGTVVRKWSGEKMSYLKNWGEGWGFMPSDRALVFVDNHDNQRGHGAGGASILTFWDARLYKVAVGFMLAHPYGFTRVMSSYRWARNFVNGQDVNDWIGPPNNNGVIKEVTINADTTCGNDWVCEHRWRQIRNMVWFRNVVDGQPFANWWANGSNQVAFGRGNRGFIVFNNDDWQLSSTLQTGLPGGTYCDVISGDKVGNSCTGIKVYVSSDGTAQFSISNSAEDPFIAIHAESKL
Nature of the series: α-amylase inhibition assay. It counts as biochemical, Porcine.
Experimental: 3.2. α-amylase inhibition assay
The a-amylase inhibition was determined by an assay modified from Kwon, Apostolidis&
Shetty. Five hundred microlitersof plant extract and all reagents were modified to 40 µL in this
assay. A total of 40 µL of sample and 40 µL of 0.02 M sodiumphosphate buffer (pH 6.9 with
0.006 M sodium chlori de) containinga-amylase solution (Porcine pancreatic a-amylase) (0.5
mg/ml)were incubated at 25 °C for 10 min. After pre-incubation, 40 lLofa 1% starch solution in
0.02M sodium phosphate buffer (pH 6.9with 0.006 M sodium chloride) was added to each tube
at 5 s intervals.The react ion mixtures were then i ncubated at 25 _C for 10 min.The reaction was
stopped with 100 µL of dinitrosalicylic acid colorreagent. The test tubes were then incubated in a
boiling water bathfor 5 min and cooled to room temperature. The reaction mixturewas then
diluted after adding 900 µL distilled water and the absorbancewas measured at 540 nm.
3.3. α-glucosidase inhibition assay
The α-glucosidase inhibition activity was performed with slightmodifications as given by Rahim
et al. Total volume of 100 μLreaction mixture contained, 70 μL 50mM phosphate buffer pH 6.8,
10μL (0.5mM in methanol) test compound, followed by the addition of 10μL (0.057 units, Sigma
Inc.) enzyme solution in the buffer.
and pre-read at 400 nm.The reaction was initiated by the addition of 10 μL of 0.5mM
substrate(p-nitrophenyl glucopyranoside, Sigma Inc.).
absorbance of p-nitrophenol was measured at 400 nm usingthe Synergy HT 96-well plate reader,
BioTek, USA. […] All experiments were carried out in
triplicates(mean ± SEM, n=3). Percent inhibition was calcul ated by the foll owing
Inhibition (%) = (Abs ofControl−Abs of Test/Abs of Control) × 100

The mark [2] stands for this setting: in vitro, porcine pancreatic α-amylase, starch substrate, acarbose as standard.

Where two headings read alike, the source gives them in different places.

What is called IC50 is the midpoint of a concentration-inhibition curve. Read a high IC50 as weaker potency. For orientation: melting point means the temperature of the solid-liquid transition.

Regarding `O=[N+]([O-])c1ccc(C(CSc2nc3ccccc3[nH]2)=NNc2nc(-c3ccccc3F)cs2)cc1` [Compound 4], the IC50 in series [1] (setting [2]) was found to be 1900 ± 100 nM.
With `O=[N+]([O-])c1ccc(C(CSc2nc3ccccc3[nH]2)=NNc2nc(-c3ccc(F)cc3)cs2)cc1` [Compound 3], the melting point fell in the range of 199 to 200 °C. This molecule also registered an IC50 in series [1] (setting [2]) of 1300 ± 50 nM.
In the case of `O=[N+]([O-])c1ccc(/C(CSc2nc3ccccc3[nH]2)=N\Nc2nc(-c3ccc(Cl)c(Cl)c3)cs2)cc1` [Compound 1], the melting point lay within 206 to 207 °C. Besides, the IC50 in series [1] is 2200 ± 100 nM.

The values are drawn from paper PMC9572811, “Synthesis of Novel Benzimidazole-Based Thiazole Derivatives as Multipotent Inhibitors of α-Amylase and α-Glucosidase: In Vitro Evaluation along with Molecular Docking Study” (Molecules, 2022).
